What was measured:
Raji cells = assay: Cellular ATP pool by HPLC; type: cell-based, human
Description: HPLC analysis was then used to determine cellular ATP pool in an attempt to understand the biochemical basis of the synergistic activity of rapamycin and 3-BrOP. Raji cells were treated with various concentrations of 3-BrOP in the presence and absence of rapamycin (100 ng/ml) for 6 h, and cellular ATP and other nucleotide pools were measured by HPLC analysis as described in Examples herein.
Because this ATP depletion occurred before apoptosis became detectable, it seems that the enhancement of ATP depletion might be a biochemical mechanism by which rapamycin promote the cytotoxic effect of 3-BrOP. […]
After cells were treated with rapamycin and 3-BrOP under the desired conditions, cellular glucose uptake was measured by incubating the cells in glucose-free RPMI 1640 media with 0.2 μCi/ml of [^3H]-2-deoxyglucose (specific activity, 40 Ci/mmol) for 60 min. After the samples were washed three times with cold PBS, the radioactivity in the cell pellets was quantified by liquid scintillation counting. […] Intracellular nucleotides were extracted from the cells with 0.4 N of perchloric acid (PCA) for 10 min in ice-bath, neutralization with concentrated KOH to pH 7.0, and analyzed by HPLC analysis as described previously (Xu et al., 2005; Seymour et al., 1996). […] The relative cellular ATP levels were expressed as percent of the control cells.

[1] = system: p70S6K, 4E-BP-1 and BAD phosphorylation in Raji cells; assay: Phosphorylation of mTOR downstream targets and BAD, western blot; type: cell-based, human
Description: The phosphorylation of p70S6K and 4E-BP1, two target molecules of mTOR, was examined as indications of mTOR inhibition.
The effect of rapamycin on BAD phosphorylation in 3-BrOP-treated cells was examined.
Protein lysates were prepared from the control and drug-treated cells, and separated by electrophoresis on 10% SDS-PAGE. […] The antibodies were dilute at 1:1,000 unless indicated otherwise. The bound primary antibodies were detected using appropriate horseradish peroxidase-conjugated secondary antibodies, followed by detection with a SuperSignal enhanced chemiluminescence kit (Pierce, Rockford, Ill.). For sequential blotting, the membranes were stripped with a stripping buffer (Pierce, Rockford, Ill.) followed by re-blotting with proper antibodies.

CCCOC(=O)C(=O)CBr [Glycolycin, propyl 3-bromo-2-oxopropionate]
cellular ATP pool (Raji cells; 6-h treatment after pre-incubation with 100 ng/ml rapamycin for 18 h): significantly enhanced the depletion of cellular ATP | cellular ATP pool (Raji cells; various concentrations, 6 h): concentration-dependent decrease | BAD phosphorylation at Ser112 ([1]; 20 μM, 6 hours): did not reduce | BAD phosphorylation at Ser112 ([1]; 40 μM in the presence of rapamycin (100 ng/ml)): complete abolished | BAD phosphorylation at Ser112 ([1]; 40 μM, 6 hours): substantial decrease | phosphorylation of P70 S6K at Thr389 and 4E-BP-1 at Ser65 ([1]; 40 μM, 6 hours): some inhibition

From patent US20060058383A1 (priority 2004, published 2006)
